For orientation: TGI means the concentration at which net growth stops. Higher therefore signals lower sensitivity of the cells.

Drawing on PubChem BioAssay (NCI), this text covers TGI for nine compounds.

Common to all, as to test: DTP human tumour cell line panel, 48 h
The subject of assay [1] is 786-0 renal.
The test system of assay [2] is CAKI-1 renal.
The test system of assay [3] is CCRF-CEM leukemia.
The test system of assay [4] is DMS 114 small cell lung.
Assay [5] has as its system IGROV1 ovarian.
Assay [6] deals with NCI-H23 lung.
The test system of assay [7] is NCI-H460 lung.
Assay [8] has as its system NCI-H522 lung.
The subject of assay [9] is OVCAR-3 ovarian.
The subject of assay [10] is OVCAR-4 ovarian.
The test system of assay [11] is OVCAR-5 ovarian.
Assay [12] deals with SF-539 CNS.
For assay [13], the system named is SW-620 colon.
The subject of assay [14] is TK-10 renal.
In assay [15] the test system is SR leukemia.
For assay [16], the system named is DU-145 prostate.
Assay [17] deals with MDA-MB-231 breast.
The subject of assay [18] is MDA-MB-435.
For assay [19], the system named is NCI/ADR-RES ovarian.
For assay [20], the system named is T-47D breast.

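Briefly, cells in 96-well plates were exposed to five compound concentrations for 48 h, and endpoints were estimated by linear interpolation. TGI marks complete inhibition of growth.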 A value given as a limit tells only on which side of the number the result lay.

`O=C(Nc1ccccc1-c1nc2ccccc2[nH]c1=O)c1ccccc1`: the TGI in assay [1] was 31 µM; in assay [2], 86.8 µM; in [3], more than 100 µM; in [4] it was 40.7 µM; in assay [5] it was 70.6 µM; in assay [6], more than 100 µM. For the same compound, the TGI was 47.1 µM in [7]; 46.1 µM in assay [8]; 44 µM in assay [9]; 50.6 µM in assay [10]; more than 100 µM in assay [11]; 49.6 µM in [12]. In addition, the values for the TGI in assay [13] and in assay [14] were 73.7 µM and 31.6 µM, respectively.
Turning to `Cc1cc(N(CCC#N)CCC#N)ccc1/C=C(\NC(=O)/C=C/c1ccccc1)C(N)=O`, the TGI in assay [1], in assay [2], in assay [3], in [4], in [5] and in assay [6] was more than 100 µM each time. Moreover, the TGI in assay [7], in [8], in [9], in [11], in assay [12] and in assay [13] was more than 100 µM in each case. The compound further displayed a TGI in assay [14] of more than 100 µM.
Regarding `Cn1cc(C2(C)CC(C)(C)c3c2n(C)c2ccccc32)c2ccccc21` (stereo not drawn), the TGI in assay [1], in [2], in [3], in assay [4], in [5] and in assay [6] was more than 100 µM throughout. In addition, the TGI in assay [7], in assay [8], in assay [9], in assay [12], in assay [13] and in assay [14] was more than 100 µM throughout.
Regarding `CC1=CCC(O)C=CC(C)C(O)C(C)C=C(C)C(=O)c2c(O)c(C)cc3c2C(=O)C(N)=C(NC(=O)/C=C\C=C/C=CC(C)C(O)CC1=O)C3=O` (stereo not drawn), the TGI in [1], in assay [2], in assay [3], in assay [4], in [5] and in assay [6] was more than 100 µM in each case. The TGI in [8] is 35.3 µM; in assay [9], more than 100 µM; in assay [10] it was more than 100 µM; in assay [11], more than 100 µM; in assay [12], more than 100 µM; in [13] it was more than 100 µM. This compound displayed a TGI in assay [14] of more than 100 µM.
`CCN(CC)C1CC(O[C@H]2C[C@](O)(C(=O)CO)Cc3c(O)c4c(c(O)c32)C(=O)c2c(OC)cccc2C4=O)OC(C)C1O` (stereo partly drawn): the TGI was found to be 0.541 µM in assay [1]; 1.41 µM in [3]; 0.274 µM in assay [4]; 4.66 µM in [5]; 0.154 µM in assay [6]; 0.146 µM in assay [7]. Also, the TGI in [8] came out at 0.121 µM; in assay [9], 0.77 µM; in assay [10], 0.255 µM; in assay [11], 0.561 µM; in assay [12], 0.204 µM; in assay [13], 0.328 µM. For the same compound, in assay [14], the TGI worked out at 2.57 µM.
Consider `O=C(Nc1cc(Cl)c(Cl)cc1Cl)C(=O)C1C(=O)NC(=S)NC1=O`, for which the TGI in [1], in [2], in [3], in [4], in assay [5] and in assay [6] was more than 100 µM each time. For the same compound, the TGI in assay [7], in assay [8], in assay [10], in [11], in assay [12] and in assay [15] was more than 100 µM each time. Further, the TGI in [13] and in assay [14] was more than 100 µM in each case.
Take `O=C(N/N=C\C=C\c1ccc([N+](=O)[O-])o1)C(=O)N/N=C\C=C\c1ccc([N+](=O)[O-])o1`: the TGI in [1] was more than 100 µM; in assay [2] it was more than 100 µM; in assay [3] it was 3.55 µM; in assay [16], more than 100 µM; in assay [5], more than 100 µM; in [17], more than 100 µM. For the same compound, the TGI in assay [18] was more than 100 µM; in [6] it was more than 100 µM; in assay [7] it was more than 100 µM; in [8] it was more than 100 µM; in assay [19] it was 70.1 µM; in assay [9] it was 55 µM. For the same compound, the TGI is more than 100 µM in assay [10]; more than 100 µM in [11]; more than 100 µM in [12]; more than 100 µM in assay [15]; 58.8 µM in assay [13]; more than 100 µM in assay [20]. Moreover, in assay [14], the TGI is more than 100 µM.
`O=c1cc(-c2ccc(Oc3ccccc3)cc2)[nH]c2cc3c(cc12)OCO3`: the TGI in assay [1], in [3], in assay [4], in [5], in assay [6] and in [7] was more than 100 µM in each case. Moreover, the TGI in [9], in assay [10], in assay [12], in assay [15], in assay [13] and in assay [14] was more than 100 µM in each case.
With `COC(=O)CC1N=C(NC#N)N(CCc2c[nH]c3ccccc23)C1=O` (stereo not drawn), the TGI in assay [1], in assay [3], in [4], in assay [5], in [6] and in [7] was more than 100 µM in each case. The TGI in assay [9], in assay [10], in [11], in assay [12], in assay [15] and in [13] was more than 100 µM each time. For the same compound, the TGI in assay [14] was more than 100 µM.
